Source: patent US20070032506A1, “CRYSTALLINE FORMS OF (2R-TRANS)-6-CHLORO-5[[4-[(4-FLUOROPHENYL)METHYL]-2,5-DIMETHYL-1-PIPERAZINYL]CARBONYL]-N,N, 1-TRIMETHYL-ALPHA-OXO-1H-INDOLE-3-ACETAMIDE MONOHYDROCHLORIDE” (priority 2005, published 2007)

Experiment: Dynamic Vapor Sorption analysis
Assay type: physicochemical
Conditions: humidity range ~21-70% Relative Humidity, Material recrystallized from isopropanol
Source text: The results of the XRPD analysis are shown both in Table I above and in FIG. 2. Dynamic Vapor Sorption analysis of this same materials was also done. […] (2 moles of water per molecule of the Compound would be 6.15% water).

## C[C@@H]1CN(Cc2ccc(F)cc2)[C@@H](C)CN1C(=O)c1cc2c(C(=O)C(=O)N(C)C)cn(C)c2cc1Cl.Cl [Compound, (2R-trans)-6-chloro-5-[[4-[(4-fluorophenyl)methyl]-2,5-dimethyl-1-piperazinyl]carbonyl]-N,N, 1-trimethyl-alpha-oxo-1H-indole-3-acetamide monohydrochloride]
  water content (water weight gained): 6-7%
